# Counter-ions that a name gives are not always drawn.
# How the values were obtained:
# human FXIa = human FXIa (Homo sapiens (Human), UniProt P03951); assay: In vitro activated factor XI (FXIa) inhibition test; assay type: biochemical; settings: 0.35 μg/mL human FXIa, substrate S-2366 300 μmol/L, 37° C., 10 minutes, OD 405 nm; read-out: FXIa inhibitory activity IC50
# Protocol: To the substrate, S-2366 (pyroGlu-Pro-Arg-pNA.HCl) was added to a final concentration of 300 μmol/L. After the reaction had progressed, the absorbance at OD 405 nm was measured.
# [1] = tested on: endogenous coagulation pathway; assay: Activated partial thromboplastin time (aPTT) of blood sample in rabbit antithrombotic test; assay type: in vivo; settings: i.v.
# Protocol: In order to measure the activated partial thromboplastin time (aPTT) of the blood sample, which was to be used as an indicator of an endogenous coagulation pathway, 2 minutes after the administration of the test agent or the vehicle, blood was collected, and plasma was then prepared using 3.2% sodium citrate. The prepared plasma was incubated at 37° C. for 7 minutes, and an STA reagent Cephascreen (used for aPTT measurement; manufactured by Roche Diagnostics) was added in an equal amount to the resulting plasma, and the obtained mixture was further incubated for 3 minutes. Thereafter, STA calcium chloride (manufactured by Roche Diagnostics) was added in an equal amount to the resultant, and the time required until coagulation was then measured.
# [2] = tested on: rabbit model with venous thrombus; assay: Rabbit in vivo antithrombotic action evaluation test (venous thrombus model), thrombus weight; settings: i.v.
# Description: A rabbit model with venous thrombus was produced by modifying the report of Wienen et al. (Wienen W. et al., J. Thromb. Haemost. 5:1237-1242 (2007)). A male rabbit (JW, 2-4 kg) was narcotized by inhalation of isoflurane (ISOFLU®, manufactured by DS Pharma Animal Health) (inductive anesthesia: 4%, continuous anesthesia: 1.5% to 2.5%). For intravenous administration of a test agent and blood collection, catheters were inserted into the left femoral vein and the left femoral artery. The left external jugular vein was exposed (2 cm) from a branch of the facial vein, the microvascular branch was then ligated, and a catheter was then inserted into the posterior facial vein. The external jugular vein (2 cm) exposed from each of an anterior facial vein branch and a facial vein branch was ligated with an artery clamp, and blood was then removed from a catheter left in the posterior facial vein. Blood in the blood vessel was washed with a normal saline, and 0.5% polidocanol (manufactured by Sigma) was injected into the blood vessel. It was then left for 5 minutes, so that the occurrence of a disorder in vascular endothelium was provoked. Thereafter, 0.5% polidocanol was removed, the inside of the blood vessel was then washed with a normal saline, and the artery clamp was then removed. The external jugular vein (2 cm) exposed from the facial vein branch, together with an injection needle 21G (manufactured by Terumo), was ligated with a silk thread, so that the inner diameter of the blood vessel was reduced to 0.8 mm. Twenty-five minutes after recirculation of the blood flow, the external jugular vein (2 cm) exposed from the facial vein branch was excised, and the wet weight and dry weight of a thrombus formed in the blood vessel were measured. A test agent or a vehicle was administered to the rabbit 2 minutes before recirculation of the blood flow.
# [3] = Ester metabolism stabilization test: human liver stabilization test; assay type: in vitro ADME; settings: human liver S9, NADPH, 37° C., 30 minutes
# Protocol: A reaction solution prepared by mixing 5 μL of human liver S9 (manufactured by Xenotech, 20 mg/mL), 20 μL of 500 mmol/L Kpi (pH7.4), 40 μL of 5 mmol/L NADPH (manufactured by Oriental Yeast Co., Ltd.) aqueous solution, and 133 μL of ion exchange water was added to 2 μL of a DMSO solution containing 100 μmol/L test substance, and the thus obtained mixture was then incubated at 37° C. for 30 minutes. After completion of the incubation, 600 μL of acetonitrile was added to the reaction solution, so that the metabolic reaction was terminated. The residual percentage of the test substance was measured using LC (LC-20A manufactured by Shimadzu Corporation) and -MS (API4000 manufactured by AB Sciex). • (2) Stabilization in Human Plasma Test
# [4] = Ester metabolism stabilization test: stabilization in human plasma test; assay type: in vitro ADME; settings: 37° C., 30 minutes
# Protocol: 198 μL of human plasma (manufactured by Cosmo Bio) was added to 2 μL of a DMSO solution containing 100 μmol/L test substance, and the obtained mixture was then incubated at 37° C. for 30 minutes. After completion of the incubation, 600 μL of acetonitrile was added to the reaction solution, so that the metabolic reaction was terminated. The residual percentage of the test substance was measured using LC (LC-20A manufactured by Shimadzu Corporation) and -MS (API4000 manufactured by AB Sciex).
# human FXIa, sequence (P03951 388-625): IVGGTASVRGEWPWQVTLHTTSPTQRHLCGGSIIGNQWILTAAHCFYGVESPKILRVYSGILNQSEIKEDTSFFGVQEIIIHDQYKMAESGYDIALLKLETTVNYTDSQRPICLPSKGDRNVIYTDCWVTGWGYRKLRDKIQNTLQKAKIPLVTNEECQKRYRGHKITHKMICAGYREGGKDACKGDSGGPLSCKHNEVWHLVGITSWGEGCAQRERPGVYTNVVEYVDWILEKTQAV
# human FXIa, sequence (P03951 19-387 partner): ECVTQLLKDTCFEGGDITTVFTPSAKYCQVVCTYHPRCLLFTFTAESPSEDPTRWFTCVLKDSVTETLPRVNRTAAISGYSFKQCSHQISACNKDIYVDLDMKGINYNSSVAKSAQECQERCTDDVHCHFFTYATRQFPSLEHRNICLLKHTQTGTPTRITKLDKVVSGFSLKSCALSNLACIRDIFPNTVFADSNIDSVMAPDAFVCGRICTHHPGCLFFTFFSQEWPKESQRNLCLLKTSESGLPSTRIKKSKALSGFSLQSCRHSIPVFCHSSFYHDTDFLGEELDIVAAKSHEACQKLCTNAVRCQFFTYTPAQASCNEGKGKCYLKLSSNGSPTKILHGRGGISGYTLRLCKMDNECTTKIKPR
Residual percentage (%) Human liver S9 [3] [%],SMILES,IC50 (human FXIa) [µM],also measured
–,N[C@H](CF)[C@H]1CC[C@H](C(=O)N2CC[C@H](c3ccc(F)cc3)[C@H]2C(=O)Nc2ccc3[nH]c(C(=O)O)cc3c2)CC1 [Example 178],0.033,–
–,"N[C@H](CF)[C@H]1CC[C@H](C(=O)N2CCC(C3CCCCC3)[C@H]2C(=O)Nc2ccc3oc(C(=O)O)cc3c2)CC1 (single isomer, unassigned) [Example 53]",–,aPTT (% vehicle) ([1]; dose 0.1 mg/kg): 103 % vehicle; aPTT (% vehicle) ([1]; dose 0.3 mg/kg): 117 % vehicle; aPTT (% vehicle) ([1]; dose 1.0 mg/kg): 140 % vehicle; aPTT (% vehicle) ([1]; dose 3.0 mg/kg): 166 % vehicle; Thrombus (% inhibition) ([2]; dose 0.1 mg/kg): 25 % inhibition; Thrombus (% inhibition) ([2]; dose 0.3 mg/kg): 56 % inhibition; Thrombus (% inhibition) ([2]; dose 1.0 mg/kg): 79 % inhibition; Thrombus (% inhibition) ([2]; dose 3.0 mg/kg): 80 % inhibition
3.5,"CC(C)C(=O)O[C@@H](C)OC(=O)N[C@H](CF)[C@H]1CC[C@H](C(=O)N2CC[C@@H](C3CCCCC3)[C@H]2C(=O)Nc2ccc(-c3nnn[nH]3)cc2)CC1 [Example 205, (1R)-1-({[(1S)-1-(trans-4-{[(2S,3S)-3-Cyclohexyl-2-{[4-(1H-tetrazol-5-yl)phenyl]carbamoyl}pyrrolidin-1-yl]carbonyl}cyclohexyl)-2-fluoroethyl]carbamoyl}oxy)ethyl 2-methylpropanoate]",–,Residual percentage (%) Human plasma [4]: 60%
5.6,CCC(=O)OC(OC(=O)c1cc2cc(NC(=O)[C@@H]3[C@@H](c4ccccc4)CCN3C(=O)[C@H]3CC[C@H]([C@H](N)CF)CC3)ccc2[nH]1)C(C)C (stereo partly shown) [Example 125],–,–
–,N[C@H](CF)[C@H]1CC[C@H](C(=O)N2CC[C@@H](C3CCCCC3)[C@H]2C(=O)Nc2ccc3[nH]c(C(=O)O)cc3c2)CC1 [Example 99],0.006,–
–,COc1ccc([C@H]2CCN(C(=O)[C@H]3CC[C@H]([C@H](N)CF)CC3)[C@@H]2C(=O)Nc2ccc3[nH]c(C(=O)O)cc3c2)cc1 [Example 170],0.076,–
47,CC(C)OC(=O)OC(C)OC(=O)c1cc2cc(NC(=O)[C@@H]3[C@H](C4CCCCC4)CCN3C(=O)[C@H]3CC[C@H]([C@H](N)CF)CC3)ccc2[nH]1 (stereo partly shown) [Example 128],–,–
–,Cc1c(C(=O)O)[nH]c2ccc(NC(=O)[C@@H]3[C@H](C4CCCCC4)CCN3C(=O)[C@H]3CC[C@H]([C@H](N)CF)CC3)cc12 [Example 113],0.145,–
–,NC(CF)[C@H]1CC[C@H](C(=O)N2CC[C@@H](c3ccc(F)cc3)[C@H]2C(=O)Nc2ccc3[nH]c(C(=O)O)cc3c2)CC1 (stereo partly shown) [Example 38],0.03,–
4.9,CC(OC(=O)OC1CCCCC1)OC(=O)c1cc2cc(NC(=O)[C@@H]3[C@@H](c4ccccc4)CCN3C(=O)[C@H]3CC[C@H]([C@H](N)CF)CC3)ccc2[nH]1 (stereo partly shown) [Example 120],–,–
5.8,COCCCOC(=O)c1cc2cc(NC(=O)[C@@H]3[C@H](C4CCCCC4)CCN3C(=O)[C@H]3CC[C@H]([C@H](N)CF)CC3)ccc2o1 [Example 82],–,–
–,NC[C@H]1CC[C@H](C(=O)N2CCC(c3ccccc3)[C@H]2C(=O)Nc2ccc3[nH]c(C(=O)O)cc3c2)CC1 (stereo partly shown) [Example 23],0.009,–
–,N[C@H](CF)[C@H]1CC[C@H](C(=O)N2CC[C@@H](c3ccccc3)[C@H]2C(=O)Nc2ccc3[nH]c(C(=O)O)c(Cl)c3c2)CC1 [Example 186],0.06,–
–,"CN(C(=O)C1C(c2ccccc2)CCN1C(=O)[C@H]1CC[C@H](CN)CC1)c1ccc2[nH]c(C(=O)O)cc2c1 (stereo partly drawn) [Example 5, 5-{cis-1-[trans-4-(Aminomethyl)cyclohexanecarbonyl]-N-methyl-3-phenylpyrrolidine-2-carboxamide}-1H-indole-2-carboxylic acid trifluoroacetate]",0.125,–

SMILES,Residual percentage (%) Human liver S9 [3] [%],IC50 (human FXIa) [µM],also measured
Cc1oc(=O)oc1COC(=O)c1cc2cc(NC(=O)[C@@H]3[C@@H](c4ccccc4)CCN3C(=O)[C@H]3CC[C@H]([C@H](N)CF)CC3)ccc2[nH]1 [Example 171],18,–,–
N[C@H](CF)[C@H]1CC[C@H](C(=O)N2CC[C@@H](C3CCCCC3)[C@H]2C(=O)Nc2ccc3oc(C(=O)OCC4CCOCC4)cc3c2)CC1 [Example 141],17,–,–
COC1CCC([C@@H]2CCN(C(=O)[C@H]3CC[C@H]([C@H](N)CF)CC3)[C@@H]2C(=O)Nc2ccc3oc(C(=O)OCC(C)C)cc3c2)CC1 (stereo partly shown) [Example 201],45,–,–
